Experimental data: patent US20260184697A1, “EZH1/2 INHIBITOR, PREPARATION THEREOF, AND USE THEREOF IN ANTI-TUMOR THERAPY” (JIANGSU TASLY DIYI PHARMACEUTICAL CO., LTD., priority 2022, published 2026)
Read-outs that look alike come from different tables or passages of the source.

How the values were obtained:
[1] = test system: Karpas-422 cells; assay: Anti-proliferation by Cell Titer-Glo method (Test Example 3); assay type: cell-based; conditions: Homo sapiens
Protocol: Karpas-422 (Nanjing Kebai, CBP60629) cells were seeded in a 96-well plate (Corning, 3894) at 1,000 cells per well in growth medium (80% 1640 (Hyclone, SH30809.01)+20% FBS (Corning, 35-081-CV)), in a total of 100 μL, and then was added with 25 μL of 5-fold different concentrations of compounds diluted in growth medium. The cell growth group without compound addition was used as a positive control (maximum signal control), and the medium was used as a negative control (minimum signal control), while ensuring that the final contration of DMSO in each reaction well was 0.2%. Then the 96-well cell plate was placed in a cell culture incubator (37° C., 5% CO2) and incubated for 3 days. On the fourth day, the cell culture plate was taken out of the incubator, using a row gun to gently blow the cells up and down to mix, removing 62.5 μL of the cell suspension, adding 50 μL of growth medium and 12.5 μL of compounds of 5 times different concentrations, and then putting them in the cell incubator to incubate for 4 days. On the eighth day, the same method was used as the fourth day to treat the cells, then incubating in the cell culture incubator for 3 days. On the eleventh day, the Cell-Titer Glo (Promega, G7573) was used to detect cell viability, and a microplate reader was used to detect the signal value of luminescence.
The inhibition rate of different concentrations of compounds on cells was calculated as inhibition rate=[1−(compound signal value−negative control signal value)/(positive control signal value-negative control signal value)][…]. The IC50 of the compound on cell activity inhibition was calculated by GraphPad Prism 6 with log(inhibitor) vs. response-Variable slope model fitting. The fitting equation is: Y=Bottom+(Top−Bottom)/(1+10^((Log IC50−X)*Hill Slope)), wherein Y represents the inhibition rate, and X represents the known concentration of the compound after Log.

[2] = biological target: T1, EZH2/SUZ/EED (Homo sapiens, UniProt O75530+Q15022+Q15910); assay: Inhibitory effect on EZH2 by the MTase-Glo method (Test Example 1); assay type: biochemical; conditions: EZH2/SUZ/EED 6.25 nM, H3 peptide 10 μM, SAM 3 μM, 30° C. 3 h, read-out: Test Example 1 WT EZH2 IC50
T1 construct: purchased BPS 51003
How it was run: (§1)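 EZH2/SUZ/EED (6.25 nM) or EZH1/SUZ/EED (25 nM) pre-incubated 15 min with compound in pH 7.6 Bicine buffer, 0.5% DMSO. Biotinylated H3(21-44) peptide 10 μM plus SAM 3 μM reacted 3 h at 30 °C; MTase-Glo luminescence normalized to controls, IC50 from variable-slope fit.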

[3] = test system: H3K27Me3 methylation in Karpas-422 cells; assay: H3K27Me3 cell method, inhibition of H3K27Me3 methylation (Test Example 2); assay type: cell-based, human; conditions: Homo sapiens, KARPAS-422, 72 h
Protocol: Karpas-422 (Nanjing Kebai, CBP60629) cells were seeded in a 96-well plate (Corning, 3894) at 15,000 cells per well in culture medium (80% 1640 (Hyclone, SH30809.01)+20% FBS (Corning, 35-081-CV)), and then added with different concentrations of compounds for treatment. The cell growth group without adding compounds is used as a positive control (maximum signal control), and the medium is used as a negative control (minimum signal control), while ensuring that in each reaction well, the final concentration of DMSO was 0.2%. Compounds and cells were incubated for 3 days in a cell culture incubator (37° C., 5% CO2). The 96-well plate was taken out from the cell culture incubator and equilibrated to room temperature, and 25 ul of cell suspension was taken out into a 384-well plate. The CCK8 (Beiyuntian, C0040) detection reagent was added, incubated at 37° C. for 1 h, and […] was detected. The rest of the cells followed the procedure of the kit EPIgeneous H3K27Me3 cellular kit (Cisbio, 62KC3PAE) to carry out experiment, read HTRF signal with BMG PHERAStar. […] By GraphPad Prism 6 with log(inhibitor)vs.response-Variable slope model simulation, the IC50 of the compound on cell activity inhibition was calculated. The fitting equation is: Y=Bottom+(Top−Bottom)/(1+10^((Log IC50−X)*HillSlope)), wherein Y represents the inhibition rate, and X represents the known concentration of the compound after Log.

[4] = biological target: T2, EZH1/SUZ/EED (Homo sapiens, UniProt O75530+Q15022+Q92800); assay: Inhibitory effect on EZH1 by the MTase-Glo method (Test Example 1); assay type: biochemical; conditions: EZH1/SUZ/EED 25 nM, H3 peptide 10 μM, SAM 3 μM, 30° C. 3 h, read-out: Test Example 1 WT EZH1 IC50
T2 construct: purchased BPS 51006
How it was run: as §1

[5] = Karpas-422 cells, Cell-Titer Glo on the eleventh day, read-out: Test Example 3 Karpas-422 cell anti-proliferation IC50
[6] = Karpas-422 cells, 3 days incubation, HTRF signal, read-out: Test Example 2 H3K27Me3 inhibition (Karpas-422) IC50
[7] = KARPAS-422, read-out: Test Example 3 Karpas-422 cell anti-proliferation IC50(nM)
[8] = read-out: Test Example 2 H3K27Me3 inhibition (Karpas-422) IC50(nM)

T1 sequence (Q15910 2-746 limits assumed): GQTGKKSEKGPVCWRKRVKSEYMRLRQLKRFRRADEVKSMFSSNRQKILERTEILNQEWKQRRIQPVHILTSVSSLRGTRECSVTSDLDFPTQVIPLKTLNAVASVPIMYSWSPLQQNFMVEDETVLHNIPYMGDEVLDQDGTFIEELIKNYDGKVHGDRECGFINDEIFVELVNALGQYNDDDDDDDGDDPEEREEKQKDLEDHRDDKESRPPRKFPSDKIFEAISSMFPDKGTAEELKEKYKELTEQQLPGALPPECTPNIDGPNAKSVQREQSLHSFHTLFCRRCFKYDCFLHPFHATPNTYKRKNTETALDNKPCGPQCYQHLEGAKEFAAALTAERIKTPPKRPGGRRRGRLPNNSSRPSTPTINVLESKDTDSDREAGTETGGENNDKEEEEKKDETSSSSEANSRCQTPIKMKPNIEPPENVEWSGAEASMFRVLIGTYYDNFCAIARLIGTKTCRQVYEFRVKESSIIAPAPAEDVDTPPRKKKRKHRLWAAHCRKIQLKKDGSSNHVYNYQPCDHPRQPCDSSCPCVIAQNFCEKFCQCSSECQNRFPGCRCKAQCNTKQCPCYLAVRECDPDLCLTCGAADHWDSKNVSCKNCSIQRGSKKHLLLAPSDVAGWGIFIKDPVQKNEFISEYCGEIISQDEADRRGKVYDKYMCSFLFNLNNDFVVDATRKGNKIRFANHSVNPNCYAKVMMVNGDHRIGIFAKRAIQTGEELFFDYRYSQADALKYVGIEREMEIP
T1 sequence (Q15022 2-739 partner limits assumed): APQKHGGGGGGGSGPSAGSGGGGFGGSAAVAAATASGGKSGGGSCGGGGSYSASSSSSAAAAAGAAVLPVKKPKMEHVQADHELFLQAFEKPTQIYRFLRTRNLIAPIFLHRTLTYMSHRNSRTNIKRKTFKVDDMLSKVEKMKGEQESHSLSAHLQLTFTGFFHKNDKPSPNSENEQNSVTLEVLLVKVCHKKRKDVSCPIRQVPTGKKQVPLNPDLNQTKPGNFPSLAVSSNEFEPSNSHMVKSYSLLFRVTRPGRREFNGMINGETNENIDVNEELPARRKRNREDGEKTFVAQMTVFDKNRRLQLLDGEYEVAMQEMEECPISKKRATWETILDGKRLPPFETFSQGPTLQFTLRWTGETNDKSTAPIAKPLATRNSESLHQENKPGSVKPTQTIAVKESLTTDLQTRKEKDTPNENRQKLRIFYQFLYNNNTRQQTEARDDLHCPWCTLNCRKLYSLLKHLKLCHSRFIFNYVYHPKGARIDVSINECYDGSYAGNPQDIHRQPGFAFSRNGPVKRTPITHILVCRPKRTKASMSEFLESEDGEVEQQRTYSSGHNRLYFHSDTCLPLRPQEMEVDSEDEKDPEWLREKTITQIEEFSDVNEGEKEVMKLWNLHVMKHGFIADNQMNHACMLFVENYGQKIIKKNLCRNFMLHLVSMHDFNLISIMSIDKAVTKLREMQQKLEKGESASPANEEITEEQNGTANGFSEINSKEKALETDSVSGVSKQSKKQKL
T1 sequence (O75530 2-441 partner limits assumed): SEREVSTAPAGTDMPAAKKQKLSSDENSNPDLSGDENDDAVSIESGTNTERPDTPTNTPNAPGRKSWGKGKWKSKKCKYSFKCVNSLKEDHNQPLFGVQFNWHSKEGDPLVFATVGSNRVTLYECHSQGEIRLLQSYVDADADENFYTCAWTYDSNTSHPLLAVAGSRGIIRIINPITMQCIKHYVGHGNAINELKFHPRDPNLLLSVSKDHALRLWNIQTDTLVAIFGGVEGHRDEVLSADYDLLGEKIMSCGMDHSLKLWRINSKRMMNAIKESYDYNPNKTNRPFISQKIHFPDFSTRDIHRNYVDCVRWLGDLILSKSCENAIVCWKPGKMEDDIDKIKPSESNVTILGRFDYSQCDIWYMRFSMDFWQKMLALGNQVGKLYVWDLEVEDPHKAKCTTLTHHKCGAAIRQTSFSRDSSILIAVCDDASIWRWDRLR
T2 sequence (Q92800 2-747 limits assumed): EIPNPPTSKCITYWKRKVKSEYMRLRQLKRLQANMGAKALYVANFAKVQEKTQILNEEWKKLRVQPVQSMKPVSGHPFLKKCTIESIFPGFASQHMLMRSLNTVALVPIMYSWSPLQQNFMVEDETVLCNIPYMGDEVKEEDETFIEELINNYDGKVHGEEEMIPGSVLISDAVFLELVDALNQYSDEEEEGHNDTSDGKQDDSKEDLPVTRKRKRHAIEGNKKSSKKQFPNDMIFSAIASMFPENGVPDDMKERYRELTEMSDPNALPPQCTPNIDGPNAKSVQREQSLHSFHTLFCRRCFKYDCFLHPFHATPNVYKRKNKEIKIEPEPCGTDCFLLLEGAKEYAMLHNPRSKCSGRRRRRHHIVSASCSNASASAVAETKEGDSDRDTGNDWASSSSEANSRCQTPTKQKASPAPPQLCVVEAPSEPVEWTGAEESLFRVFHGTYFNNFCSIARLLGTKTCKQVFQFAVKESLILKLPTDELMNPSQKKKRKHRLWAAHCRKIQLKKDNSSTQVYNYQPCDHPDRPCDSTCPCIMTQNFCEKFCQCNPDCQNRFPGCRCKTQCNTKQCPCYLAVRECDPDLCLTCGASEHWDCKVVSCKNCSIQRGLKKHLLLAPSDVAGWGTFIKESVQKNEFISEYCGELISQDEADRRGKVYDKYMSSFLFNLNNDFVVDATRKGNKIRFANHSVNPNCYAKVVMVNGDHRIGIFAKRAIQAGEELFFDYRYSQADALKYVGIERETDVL
T2 sequence (Q15022 2-739 partner limits assumed): as the sequence (Q15022 2-739 partner limits assumed) above
T2 sequence (O75530 2-441 partner limits assumed): as the sequence (O75530 2-441 partner limits assumed) above

IC50 [1, 5] [nM] | IC50 [2] [nM] | IC50 [3, 6] [nM] | IC50 [4] [nM] | Compound | IC50 [1, 7] [nM] | IC50 [3, 8] [nM]
2.7 | 2.3 | 3.6 | 3.3 | COC1CN([C@H]2CC[C@@H]([C@H]3COc4c(Cl)cc(C(=O)NCc5c(SC)cc(C)[nH]c5=O)c(Cl)c4O3)CC2)C1 [Compound 149] | – | –
35.8 | – | 92.3 | – | COc1cc(C)[nH]c(=O)c1CNC(=O)c1cc(Cl)c2c(c1C)O[C@@H]([C@H]1CC[C@@H](N3CC[C@@H](OC)C3)CC1)CO2 [Compound 121] | – | –
5.3 | 3.25 | 8.2 | 15.2 | COc1cc(C)[nH]c(=O)c1CNC(=O)c1cc(Cl)c2c(c1C)O[C@@H]([C@H]1CC[C@@H](N3CC(OC)C3)CC1)CO2 [Compound 97] | – | –
1.6 | 3.1 | 3.2 | 3.3 | [2H]C([2H])([2H])OC1CN([C@H]2CC[C@@H]([C@H]3COc4c(Cl)cc(C(=O)NCc5c(SC)cc(C)[nH]c5=O)c(C)c4O3)CC2)C1 [Compound 20] | – | –
1.8 | 5.6 | 2.4 | 6.2 | COC1CN([C@H]2CC[C@@H]([C@H]3COc4c(Cl)cc(C(=O)NCc5c(SC)cc(C)[nH]c5=O)c(C)c4O3)CC2)C1 [Compound 8] | – | –
36.6 | – | – | – | COc1cc(C)[nH]c(=O)c1CNC(=O)c1cc(Cl)c2c(c1C)O[C@@H]([C@H]1CC[C@@H](OCCF)CC1)CO2 [Compound 179] | – | –
> 1000 | – | > 1000 | – | COC1CN([C@H]2CC[C@H]([C@@H]3COc4c(F)cc(C(=O)NCc5c(SC)cc(C)[nH]c5=O)c(C)c4O3)CC2)C1 [Compound 171] | – | –
1.8 | 6 | 4.2 | 5.8 | COC1CN([C@H]2CC[C@@H]([C@H]3COc4c(F)cc(C(=O)NCc5c(SC)cc(C)[nH]c5=O)c(C)c4O3)CC2)C1 [Compound 169] | – | –
3.8 | 3.1 | 2.2 | 5.5 | COCCOC1CN([C@H]2CC[C@@H]([C@H]3COc4c(Cl)cc(C(=O)NCc5c(OC)cc(C)[nH]c5=O)c(C)c4O3)CC2)C1 [Compound 101] | – | –
3.7 | 3.2 | 6.2 | 6.9 | COC1CN([C@H]2CC[C@@H]([C@H]3COc4c(C#N)cc(C(=O)NCc5c(SC)cc(C)[nH]c5=O)c(C)c4O3)CC2)C1 [Compound 153] | – | –
12.9 | – | – | – | COc1cc(C)[nH]c(=O)c1CNC(=O)c1cc(Cl)c2c(c1C)O[C@@H]([C@H]1CC[C@@H](N3CC[C@H](OC)C3)CC1)CO2 [Compound 119] | – | –
46.8 | – | – | – | COC1CN([C@H]2CC[C@H]([C@H]3COc4c(F)cc(C(=O)NCc5c(SC)cc(C)[nH]c5=O)c(C)c4O3)CC2)C1 [Compound 170] | – | –
1.5 | 8.1 | 1.7 | 4.8 | CSc1cc(C)[nH]c(=O)c1CNC(=O)c1cc(Cl)c2c(c1C)O[C@@H]([C@H]1CC[C@@H](N3CC(OC4CC4)C3)CC1)CO2 [Compound 11] | – | –
472 | – | – | – | COc1cc(C)[nH]c(=O)c1CNC(=O)c1cc(Cl)c2c(c1C)O[C@@H]([C@H]1CC[C@H](N3CC[C@@H](OC)C3)CC1)CO2 [Compound 122] | – | –
1.2 | – | 1.4 | – | C#Cc1cc(C(=O)NCc2c(SC)cc(C)[nH]c2=O)c(C)c2c1OC[C@H]([C@H]1CC[C@@H](N3CC(OC)C3)CC1)O2 [Compound 165] | – | –
197 | – | – | – | COC1CN([C@H]2CC[C@H]([C@H]3COc4c(Cl)cc(C(=O)NCc5c(Cl)cc(C)[nH]c5=O)c(C)c4O3)CC2)C1 [Compound 176] | – | –
373 | – | – | – | COC1CN([C@H]2CC[C@@H]([C@@H]3COc4c(F)cc(C(=O)NCc5c(SC)cc(C)[nH]c5=O)c(C)c4O3)CC2)C1 [Compound 172] | – | –
31.5 | – | – | – | COc1cc(C)[nH]c(=O)c1CNC(=O)c1cc(Cl)c2c(c1C)O[C@@H]([C@H]1CC[C@H](N3CC[C@H](OC)C3)CC1)CO2 [Compound 120] | – | –
10.8 | – | – | – | COc1cc(C)[nH]c(=O)c1CNC(=O)c1cc(Cl)c2c(c1C)O[C@@H]([C@H]1CC[C@H](OCCF)CC1)CO2 [Compound 180] | – | –

More lines, now with the values behind:

Compound | IC50 [1, 5] [nM] | IC50 [2] [nM] | IC50 [3, 6] [nM] | IC50 [4] [nM] | IC50 [1, 7] [nM] | IC50 [3, 8] [nM]
CSc1cc(C)[nH]c(=O)c1CNC(=O)c1cc(Cl)c2c(c1C)OC(C1CCN(CC3CC3)CC1)CO2 (stereo not shown) [Compound 16] | 19.8 | 5.2 | 85.9 | 29.6 | – | –
CSc1cc(C)[nH]c(=O)c1CNC(=O)c1cc(Cl)c2c(c1C)O[C@@H]([C@H]1CC[C@@H](N3CCC3)CC1)CO2 [Compound 32] | – | 5.1 | – | 5.7 | 2 | 1.7
CSc1cc(C)[nH]c(=O)c1CNC(=O)c1cc(C#N)c2c(c1C)O[C@@H]([C@H]1CC[C@@H](N3CC(OC(F)F)C3)CC1)CO2 [Compound 163] | 1.7 | 7.1 | 1.9 | – | – | –
Cc1cc(C)c(CNC(=O)c2c(C)c3c(c(Cl)c2F)OC[C@H](C2CCC(N(C)C)CC2)O3)c(=O)[nH]1 (stereo partly shown) [Compound 130] | – | 12.6 | – | 201 | 115 | 209
CSc1cc(C)[nH]c(=O)c1CNC(=O)c1cc(Cl)c2c(c1C)O[C@@H]([C@H]1CC[C@@H](N3CC4COCC4C3)CC1)CO2 (stereo partly shown) [Compound 14] | 3.3 | 3.7 | 6.8 | 3.7 | – | –
CSc1cc(C)[nH]c(=O)c1CNC(=O)c1cc(C#N)c2c(c1C)O[C@@H]([C@H]1CC[C@@H](N3CC(OC4CC4)C3)CC1)CO2 [Compound 159] | 2.3 | 1.1 | 1.4 | 7 | – | –
CSc1cc(C)[nH]c(=O)c1CNC(=O)c1cc(Cl)c2c(c1C)O[C@@H]([C@H]1CC[C@@H](N3CC(CF)C3)CC1)CO2 [Compound 34] | 5.8 | – | 6.2 | – | – | –
CSc1cc(C)[nH]c(=O)c1CNC(=O)c1cc(C#N)c2c(c1C)O[C@@H]([C@H]1CC[C@@H](N3CC(OCCF)C3)CC1)CO2 [Compound 161] | 2.4 | 3.7 | 2.2 | 5.5 | – | –
CSc1cc(C)[nH]c(=O)c1CNC(=O)c1cc(Cl)c2c(c1C)O[C@@H]([C@H]1CC[C@@H](N(C)C)CC1)CO2 [Compound 6] | – | 2.5 | – | 4 | 1.3 | 0.59
Cc1c(C(=O)NCC2COC2)cc(Cl)c2c1O[C@@H]([C@H]1CC[C@@H](N(C)C)CC1)CO2 [Compound 167] | – | – | – | – | > 1000 | –
Cc1cc(Cl)c(CNC(=O)c2cc(Cl)c3c(c2C)O[C@@H]([C@H]2CC[C@@H](N(C)C)CC2)CO3)c(=O)[nH]1 [Compound 173] | 124 | – | – | – | – | –
Cc1cc(Cl)c(CNC(=O)c2cc(Cl)c3c(c2C)O[C@@H]([C@H]2CC[C@H](N(C)C)CC2)CO3)c(=O)[nH]1 [Compound 174] | 5.6 | 3.1 | – | 7.2 | – | –
Cc1c(C(=O)NCC2COC2)cc(Cl)c2c1O[C@@H]([C@H]1CC[C@H](N(C)C)CC1)CO2 [Compound 168] | – | – | – | – | > 1000 | –
